Data from PubChem BioAssay (NCI).
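Each compound was tested at five concentrations against cells in 96-well plates for 48 hours. At the GI50, growth is halved. TGI marks complete inhibition of growth.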

What was measured:
Test in all cases: NCI-60 cell line screen, 48 h
U251 CNS = system: U251 CNS
RPMI-8226 leukemia = system: RPMI-8226 leukemia
T-47D breast = system: T-47D breast
K-562 leukemia = system: K-562 leukemia
LOX IMVI melanoma = system: LOX IMVI melanoma
RXF 393 renal = system: RXF 393 renal
UACC-62 melanoma = system: UACC-62 melanoma
SF-539 CNS = system: SF-539 CNS
PC-3 prostate = system: PC-3 prostate
SF-295 CNS = system: SF-295 CNS

Structure (SMILES)	GI50 (U251 CNS)	TGI (U251 CNS)	GI50 (RPMI-8226 leukemia)	TGI (RPMI-8226 leukemia)	GI50 (T-47D breast)	TGI (T-47D breast)	GI50 (K-562 leukemia)	TGI (K-562 leukemia)	GI50 (LOX IMVI melanoma)	TGI (LOX IMVI melanoma)	GI50 (RXF 393 renal)	TGI (RXF 393 renal)	GI50 (UACC-62 melanoma)	TGI (UACC-62 melanoma)	GI50 (SF-539 CNS)	TGI (SF-539 CNS)	GI50 (PC-3 prostate)	TGI (PC-3 prostate)	GI50 (SF-295 CNS)	TGI (SF-295 CNS)
COc1ccc2c(c1)C(=O)c1c-2n(CCCN(C)C)c(=O)c2cc([N+](=O)[O-])ccc12	< 0.01 µM	1.07 µM	< 0.01 µM	0.0707 µM	< 0.01 µM	21.6 µM	< 0.01 µM	2.29 µM	< 0.01 µM	0.108 µM	< 0.01 µM	0.0926 µM	< 0.01 µM	< 0.01 µM	< 0.01 µM	< 0.01 µM	< 0.0278 µM	1.05 µM	< 0.01 µM	< 0.0188 µM
O=C1Cc2cc(CCN3CCNCC3)c(Cl)cc2N1	7.79 µM	> 100 µM	6.03 µM	> 100 µM	29.1 µM	> 100 µM	6.24 µM	> 100 µM	> 100 µM	> 100 µM	6.89 µM	> 100 µM	6.54 µM	> 100 µM	> 100 µM	> 100 µM	98.3 µM	> 100 µM	4.2 µM	> 100 µM
